For the data set, the system named is Lipoclean lipase. Nature of the data set: Storage stability of liquid Lipoclean lipase formulation: residual lipase activity (PNP-Palmitate hydrolysis, 405 nm) versus frozen reference. The data set is classed as biochemical. As to conditions: 2% enzyme protein, sorbitol and glycerol, 0.08% Z-GAY-H, compared with frozen reference sample. The protocol:
Lipoclean formulations, per se (LCLU/g) residual activities: The Lipase was formulated from crude concentrate with standard formulation ingredients (sorbitol and glycerol) with and without the serine protease inhibitor (2% enzyme protein, 0.08% Z-GAY-H added with a 1% DMSO solution). The solution was split into separate vials which were incubated at different temperature and times and compared in activity with a frozen reference sample frozen directly after mixing. The lipase activity was measured by ester bond hydrolysis in the substrate PNP-Palmitate (C:16) and releases PNP which is yellow and can be detected at 405 nm.

The record followed here is US20120322715A1, “SERINE HYDROLASE FORMULATION” (NOVOZYMES A/S, priority 2010, published 2012).

Turning to “Z-GAY-H [0.08% serine protease inhibitor]”, the “residual activities (lipase)” value amounted to 71% (2 weeks, 50° C.); 70% (4 weeks, 40° C.); 56% (4 weeks, 50° C.).
